Holding throughout (experiment): relative viability (nuclei count vs DMSO), 5 days (fraction); higher = more cells survive
Compound in the assay “Carfilzomib + Tozasertib”: CC(C)C[C@H](NC(=O)[C@H](CCc1ccccc1)NC(=O)CN1CCOCC1)C(=O)N[C@@H](Cc1ccccc1)C(=O)N[C@@H](CC(C)C)C(=O)[C@@]1(C)CO1 [Carfilzomib] + Cc1cc(Nc2cc(N3CCN(C)CC3)nc(Sc3ccc(NC(=O)C4CC4)cc3)n2)n[nH]1 [Tozasertib] (partner 0.1 µM)
The method, boiled down: (§1)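 Nuclei were stained with Hoechst during a one-step fixation (final 0.05% Triton X-100, 1% formaldehyde, 1 ug/ml Hoechst) carried out 5 days after dosing, then counted on 4× images. The cells, lung cancer lines in 1536-well plates, had been dosed by pin tool the day after seeding with one drug alone or a fixed anchor-drug dose plus five library-drug doses (not always all listed) in √10 steps. Relative viability is the nuclei count in treated wells divided by that in vehicle wells, and each value is the median of duplicate plates.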

Compound in the assay “Crizotinib + Palbociclib”: C[C@@H](Oc1cc(-c2cnn(C3CCNCC3)c2)cnc1N)c1c(Cl)ccc(F)c1Cl [Crizotinib] + CC(=O)c1c(C)c2cnc(Nc3ccc(N4CCNCC4)cn3)nc2n(C2CCCC2)c1=O [Palbociclib] (partner 0.5 µM)
The method, boiled down:
as §1

Compound in the assay “Carfilzomib + Phenformin”: CC(C)C[C@H](NC(=O)[C@H](CCc1ccccc1)NC(=O)CN1CCOCC1)C(=O)N[C@@H](Cc1ccccc1)C(=O)N[C@@H](CC(C)C)C(=O)[C@@]1(C)CO1 [Carfilzomib] + N=C(N)NC(=N)NCCc1ccccc1 [Phenformin] (partner 250 µM)
A digest of the protocol: as §1

Compound in the assay “Carfilzomib + Pemetrexed”: CC(C)C[C@H](NC(=O)[C@H](CCc1ccccc1)NC(=O)CN1CCOCC1)C(=O)N[C@@H](Cc1ccccc1)C(=O)N[C@@H](CC(C)C)C(=O)[C@@]1(C)CO1 [Carfilzomib] + Nc1nc2[nH]cc(CCc3ccc(C(=O)N[C@@H](CCC(=O)O)C(=O)O)cc3)c2c(=O)[nH]1 [Pemetrexed] (partner 0.2 µM)
The method, boiled down: as §1

In the case of SK-LU-1, the relative viability with Carfilzomib + Tozasertib (first compound 0.001 µM) was found to be 0.342; with Carfilzomib + Tozasertib (first compound 0.003162 µM), 0.371; in the assay with Carfilzomib + Tozasertib (first compound 0.01 µM), 0.343; with Carfilzomib + Tozasertib (first compound 0.03162 µM) it was 0.0891; with Carfilzomib + Tozasertib (first compound 0.1 µM), 0.109; in the assay with Crizotinib + Palbociclib (first compound 0.01 µM) it was 0.391. Also, the relative viability with Crizotinib + Palbociclib (first compound 0.03162 µM) was determined as 0.359; with Crizotinib + Palbociclib (first compound 0.1 µM), 0.38; with Crizotinib + Palbociclib (first compound 0.3162 µM) it was 0.361; with Crizotinib + Palbociclib (first compound 1 µM), 0.436; in the assay with Carfilzomib + Phenformin (first compound 0.001 µM), 0.458; in the assay with Carfilzomib + Phenformin (first compound 0.003162 µM), 0.529. Also, the relative viability with Carfilzomib + Phenformin (first compound 0.01 µM) is 0.48; in the assay with Carfilzomib + Phenformin (first compound 0.03162 µM) it was 0.0958; in the assay with Carfilzomib + Phenformin (first compound 0.1 µM) it was 0.114; with Carfilzomib + Pemetrexed (first compound 0.001 µM), 0.946; in the assay with Carfilzomib + Pemetrexed (first compound 0.003162 µM) it was 1.03; with Carfilzomib + Pemetrexed (first compound 0.01 µM), 0.978. Besides, the relative viability with Carfilzomib + Pemetrexed (first compound 0.03162 µM) came to 0.258; with Carfilzomib + Pemetrexed (first compound 0.1 µM), 0.182.

Consider SK-MES-1, for which the relative viability in the assay with Carfilzomib + Tozasertib (first compound 0.001 µM) is 0.939; in the assay with Carfilzomib + Tozasertib (first compound 0.003162 µM), 1.07; in the assay with Carfilzomib + Tozasertib (first compound 0.01 µM), 0.998; with Carfilzomib + Tozasertib (first compound 0.03162 µM), 0.725; with Carfilzomib + Tozasertib (first compound 0.1 µM), 0.136; with Crizotinib + Palbociclib (first compound 0.01 µM) it was 0.295. Moreover, the relative viability with Crizotinib + Palbociclib (first compound 0.03162 µM) was determined as 0.318; with Crizotinib + Palbociclib (first compound 0.1 µM), 0.341; with Crizotinib + Palbociclib (first compound 0.3162 µM), 0.312; in the assay with Crizotinib + Palbociclib (first compound 1 µM), 0.302; with Carfilzomib + Phenformin (first compound 0.001 µM), 0.655; in the assay with Carfilzomib + Phenformin (first compound 0.003162 µM), 0.745. Also, the relative viability worked out at 0.635 in the assay with Carfilzomib + Phenformin (first compound 0.01 µM); 0.551 in the assay with Carfilzomib + Phenformin (first compound 0.03162 µM); 0.146 with Carfilzomib + Phenformin (first compound 0.1 µM); 1.02 with Carfilzomib + Pemetrexed (first compound 0.001 µM); 1.1 with Carfilzomib + Pemetrexed (first compound 0.003162 µM); 1.14 with Carfilzomib + Pemetrexed (first compound 0.01 µM). For the same cell line, the values for the relative viability with Carfilzomib + Pemetrexed (first compound 0.03162 µM) and in the assay with Carfilzomib + Pemetrexed (first compound 0.1 µM) were 0.786 and 0.177, respectively.

Consider SW 900, for which the relative viability with Carfilzomib + Tozasertib (first compound 0.001 µM) was 0.508; with Carfilzomib + Tozasertib (first compound 0.003162 µM), 0.682; with Carfilzomib + Tozasertib (first compound 0.01 µM), 0.142; with Carfilzomib + Tozasertib (first compound 0.03162 µM) it was 0.149; in the assay with Carfilzomib + Tozasertib (first compound 0.1 µM) it was 0.164; with Crizotinib + Palbociclib (first compound 0.01 µM) it was 0.544. Further, the relative viability is 0.453 with Crizotinib + Palbociclib (first compound 0.03162 µM); 0.497 in the assay with Crizotinib + Palbociclib (first compound 0.1 µM); 0.546 with Crizotinib + Palbociclib (first compound 0.3162 µM); 0.514 with Crizotinib + Palbociclib (first compound 1 µM); 0.431 with Carfilzomib + Phenformin (first compound 0.001 µM); 0.937 with Carfilzomib + Phenformin (first compound 0.003162 µM). For the same cell line, the relative viability in the assay with Carfilzomib + Phenformin (first compound 0.01 µM) was determined as 0.133; in the assay with Carfilzomib + Phenformin (first compound 0.03162 µM) it was 0.163; in the assay with Carfilzomib + Phenformin (first compound 0.1 µM) it was 0.138; in the assay with Carfilzomib + Pemetrexed (first compound 0.003162 µM) it was 0.497; in the assay with Carfilzomib + Pemetrexed (first compound 0.01 µM) it was 0.176; with Carfilzomib + Pemetrexed (first compound 0.03162 µM), 0.152. Besides, the relative viability in the assay with Carfilzomib + Pemetrexed (first compound 0.1 µM) turned out to be 0.216.

On to SW 1573, for which the relative viability worked out at 0.193 with Carfilzomib + Tozasertib (first compound 0.001 µM); 0.253 in the assay with Carfilzomib + Tozasertib (first compound 0.003162 µM); 0.23 with Carfilzomib + Tozasertib (first compound 0.01 µM); 0.0683 in the assay with Carfilzomib + Tozasertib (first compound 0.03162 µM); 0.051 in the assay with Carfilzomib + Tozasertib (first compound 0.1 µM); 0.373 with Crizotinib + Palbociclib (first compound 0.01 µM). Also, the relative viability in the assay with Crizotinib + Palbociclib (first compound 0.03162 µM) turned out to be 0.368; with Crizotinib + Palbociclib (first compound 0.1 µM) it was 0.39; in the assay with Crizotinib + Palbociclib (first compound 0.3162 µM), 0.417; with Crizotinib + Palbociclib (first compound 1 µM), 0.411; with Carfilzomib + Phenformin (first compound 0.001 µM), 0.341; with Carfilzomib + Phenformin (first compound 0.003162 µM) it was 0.43. The relative viability in the assay with Carfilzomib + Phenformin (first compound 0.01 µM) came to 0.251; with Carfilzomib + Phenformin (first compound 0.03162 µM), 0.0664; with Carfilzomib + Phenformin (first compound 0.1 µM), 0.0618; with Carfilzomib + Pemetrexed (first compound 0.001 µM), 0.809; with Carfilzomib + Pemetrexed (first compound 0.003162 µM) it was 0.927; with Carfilzomib + Pemetrexed (first compound 0.01 µM), 0.613. Besides, the results for the relative viability with Carfilzomib + Pemetrexed (first compound 0.03162 µM) and with Carfilzomib + Pemetrexed (first compound 0.1 µM) were 0.071 and 0.0521, respectively.

In the case of UMC-11, the relative viability was determined as 0.206 in the assay with Carfilzomib + Tozasertib (first compound 0.001 µM); 0.202 with Carfilzomib + Tozasertib (first compound 0.003162 µM); 0.205 in the assay with Carfilzomib + Tozasertib (first compound 0.01 µM); 0.202 with Carfilzomib + Tozasertib (first compound 0.03162 µM); 0.224 with Carfilzomib + Tozasertib (first compound 0.1 µM); 0.329 in the assay with Crizotinib + Palbociclib (first compound 0.01 µM). The relative viability in the assay with Crizotinib + Palbociclib (first compound 0.03162 µM) is 0.336; in the assay with Crizotinib + Palbociclib (first compound 0.1 µM) it was 0.307; in the assay with Crizotinib + Palbociclib (first compound 1 µM), 0.398; with Carfilzomib + Phenformin (first compound 0.001 µM), 0.318; with Carfilzomib + Phenformin (first compound 0.003162 µM), 0.33; with Carfilzomib + Phenformin (first compound 0.01 µM) it was 0.295. The relative viability with Carfilzomib + Phenformin (first compound 0.03162 µM) was found to be 0.293; with Carfilzomib + Phenformin (first compound 0.1 µM) it was 0.162; with Carfilzomib + Pemetrexed (first compound 0.001 µM) it was 0.803; with Carfilzomib + Pemetrexed (first compound 0.003162 µM), 0.928; with Carfilzomib + Pemetrexed (first compound 0.01 µM), 0.881; with Carfilzomib + Pemetrexed (first compound 0.03162 µM) it was 0.652. Also, the relative viability in the assay with Carfilzomib + Pemetrexed (first compound 0.1 µM) is 0.251.

The record behind these values is the supplement of paper PMC10307832.
